Each compound was assayed on CWR22RV1 cells (assay: Inhibition of proliferation of CWR22RV1 cells (CCK-8)). Details: 6 days culture, read-out: IC50 against CWR22RV1 cells.
Assay type: cell-based, human
Method: 1) CWR22RV1 cells were subcultured in cell culture medium, and the cells in good growth condition were seeded in a 96-well plate, 80 μL for each well, and the cell number in each well was 1500. The plate was incubated overnight in a 37° C., 5% CO2 cell incubator. 2) The drug was prepared as 30 mM stock solution with dimethyl sulfoxide (DMSO). Prior to use, the stock solution was diluted 3 times with DMSO, and then further diluted as 3-fold gradient to obtain 9 concentration gradients. Then, each concentration of compound was diluted 200 times with the culture solution (ensuring that the DMSO concentration in the culture system was 0.1%), and two replicate wells were set for each concentration. 20 μL of diluted compound solution was added to the cell culture well (with final concentrations of 10 μM, 3.3 μM. 1.1 μM . . . ), and the plate was gently shaken to mix. In addition, 3 negative control wells containing only cells and 3 blank control wells containing only culture medium were included (6 wells were each added 20 μL DMSO diluted 200 times with culture medium). 2. Result detection: (1) After culturing for 6 days, 10 μL CCK-8 was added to each well, and the plate was continually cultured in a 37° C., 5% CO2 cell incubator for 2.5 h. (2) The absorbance (OD value) was detected at 450 nm using a multifunctional microplate reader. (3) The data were analyzed by Dose-response-inhibition equation in the software GraphPad Prism6, and the IC50 value was obtained.

SMILES	IC50
CNC(=O)Nc1ccc2c(c1)CC[C@@]21OC(=O)N(CC(=O)N2C[C@@H]3C[C@H]2CN3C(=O)OC(C)(C)C)C1=O [Example 10, (1S,4S)-5-(2-((R)-5-(3-methylureido)-2′,4′-dioxo-2,3-dihydrospiro[indene-1,5′-oxazolidine]t-butyl-3′-yl)acetyl)-2,5-diazabicyclo[2.2.1]heptane-2-carboxylic Acid t-Butyl Ester]	> 2000 nM
CNC(=O)Nc1ccc2c(c1)CC[C@@]21OC(=O)N(CC(=O)N2C(c3ccc(F)c(Cl)c3)CC[C@@H]2C)C1=O (stereo in doubt) [Example 369, 1-((R)-3′-(2-((2R,5S)-2-(3-chloro-4-fluorophenyl)-5-methylpyrrolidin-1-yl)-2-oxoethyl)-2′,4′-dioxo-2,3-dihydrospiro[indene-1,5′-oxazolidine]-5-yl)-3-methylurea]	> 2000 nM
CNC(=O)Nc1ccc2c(c1)CC[C@@]21OC(=O)N(CC(=O)N2C(c3ccc(F)cc3)CCC2(C)C)C1=O (stereo partly drawn) [Example 39, 1-((R)-3′-(2-(5-(4-fluorophenyl)-2,2-dimethylpyrrolidin-1-yl)-2-oxoethyl)-2′,4′-dioxo-2,3-dihydrospiro[indene-1,5′-oxazolidine]-5-yl)-3-methylurea]	500 to 2000 nM

Same assay, conditions: Homo sapiens, CWR22Rv1, 144 h, 6 days culture, read-out: IC50 against CWR22RV1 cells

SMILES	IC50
CNC(=O)Nc1ccc2c(c1)CC[C@@]21OC(=O)N(CC(=O)N2CCCc3cc(-c4cnn(C)c4)ccc32)C1=O [Example 302, (R)-1-methyl-3-(3′-(2-(6-(1-methyl-1H-pyrazol-4-yl)-3,4-dihydroquinolin-1 (2H)-yl)-2-oxoethyl)-2′,4′-dioxo-2,3-dihydrospiro[indene-1,5′-oxazolidine]-5-yl)urea]	> 2000 nM
CNC(=O)Nc1cc(F)c2c(c1)CC[C@@]21OC(=O)N(CC(=O)N2[C@@H](C)CC[C@H]2c2cc(F)c(F)c(F)c2)C1=O [Example 388]	> 2000 nM
CNC(=O)Nc1ccc2c(c1)CC[C@@]21OC(=O)N(CC(=O)N2C(c3ccc(F)cc3)CC[C@@H]2CO)C1=O (mixture of isomers) [Example 360, 1-((R)-3′-(2-((R)-2-(4-fluorophenyl)-5-(hydroxymethyl)pyrrolidin-1-yl)-2-oxoethyl)-2′,4′-dioxo-2,3-dihydrospiro[indene-1,5′-oxazolidine]-5-yl)-3-methylurea]	> 2000 nM
CNC(=O)Nc1ccc2c(c1)CC[C@@]21OC(=O)N(CC(=O)N2CCCC2c2cccnc2)C1=O (stereo partly drawn) [Example 334, 1-((1R)-2′,4′-dioxo-3′-(2-oxo-2-(2-(pyridin-3-yl)pyrrolidin-1-yl)ethyl)-2,3-dihydrospiro[indene-1,5′-oxazolidine]-5-yl)-3-methylurea]	> 2000 nM
CNC(=O)Nc1ccc2c(c1)CC[C@@]21OC(=O)N(CC(=O)N2C(C)CC[C@H]2CN2CCC3(CC2)CC3(F)F)C1=O (stereo partly drawn) [Example 378, 1-((1R)-3′-(2-((2S)-2-((1,1-difluoro-6-aza-spiro[2.5]octan-6-yl)methyl)-5-methylpyrrolidin-1-yl)-2-oxoethyl)-2′,4′-dioxo-2,3-dihydrospiro[indene-1,5′-oxazolidine]-5-yl)-3-methylurea]	> 2000 nM
CNC(=O)Nc1ccc2c(c1)CC[C@@]21OC(=O)N(CC(=O)N2C3CCCC2CC3)C1=O [Example 3]	> 2000 nM
CNC(=O)Nc1ccc2c(c1)CC[C@@]21OC(=O)N(CC(=O)N2C3CCC2CC3)C1=O [Example 7, 1-((R)-3′-(2-((1S,4S)-7-azabicyclo[2.2.1]heptan-7-yl)-2-oxoethyl)-2′,4′-dioxo-2,3-dihydrospiro[indene-1,5′-oxazolidine]-5-yl)-3-methylurea]	> 2000 nM
CNC(=O)Nc1ccc2c(c1)CC[C@]21OC(=O)N(CC(=O)N2C[C@H]3C[C@@H]2CO3)C1=O [Example 315, 1-((S)-3′-(2-((1R,4R)-2-oxa-5-azabicyclo[2.2.1]heptan-5-yl)-2-oxoethyl)-2′,4′-dioxo-2,3-dihydrospiro[indene-1,5′-oxazolidine]-5-yl)-3-methylurea]	> 2000 nM
CNC(=O)Nc1ccc2c(c1)CC[C@@]21OC(=O)N(CC(=O)N2C(C(C)(C)C)OC[C@@H]2c2ccccc2)C1=O (some centres unmarked) [Example 108]	> 2000 nM
CNC(=O)Nc1ccc2c(c1)CC[C@@]21OC(=O)N(Cc2ncc(-c3ccccc3)[nH]2)C1=O [Example 110, (R)-1-(2′,4′-dioxo-3′-((5-phenyl-1H-imidazol-2-yl)methyl)-2,3-dihydrospiro[indene-1,5′-oxazolidine]-5-yl)-3-methylurea]	> 2000 nM
CNC(=O)Nc1ccc2c(c1)CC[C@@]21OC(=O)N(CC(=O)N2CCCC2c2ccccc2OC(F)(F)F)C1=O (stereo partly drawn) [Example 13, 1-((1R)-2′,4′-dioxo-3′-(2-oxo-2-(2-(2-(trifluoromethoxyl)phenyl)pyrrolidin-1-yl)ethyl)-2,3-dihydrospiro[indene-1,5′-oxazolidine]-5-yl)-3-methylurea]	> 2000 nM
CNC(=O)Nc1ccc2c(c1)CC[C@]21OC(=O)N(CC(=O)N2Cc3cccnc3C2)C1=O [Example 305, (S)-1-(3′-(2-(5,7-dihydro-6H-pyrrolo[3,4-b]pyridin-6-yl)-2-oxoethyl)-2′,4′-dioxo-2,3-dihydrospiro[indene-1,5′-oxazolidine]-5-yl)-3-methylurea]	> 2000 nM
CNC(=O)Nc1ccc2c(c1)CC[C@]21OC(=O)N(CC(=O)N2CCc3ccccc3C2)C1=O [Example 311, (S)-1-(3′-(2-(3,4-dihydroisoquinolin-2(1H)-yl)-2-oxoethyl)-2′,4′-dioxo-2,3-dihydrospiro[indene-1,5′-oxazolidine]-5-yl)-3-methylurea]	> 2000 nM
CNC(=O)Nc1ccc2c(c1)CC[C@@]21OC(=O)N(CC(=O)N[C@]23C[C@H]4C[C@H](C[C@H](C4)C2)C3)C1=O [Example 99]	> 2000 nM
CNC(=O)Nc1ccc2c(c1)CC[C@@]21OC(=O)N(CC(=O)N2CCCC[C@@H]2c2ccccc2)C1=O [Example 2]	> 2000 nM
CO[C@@H](C)C(=O)Nc1ccc2c(c1)CC[C@@]21OC(=O)N(CC(=O)N2[C@@H](C)CC[C@H]2c2ccc(F)cc2)C1=O [Example 377, (S)—N—((R)-3′-(2-((2S,5S)-2-(4-fluorophenyl)-5-methylpyrrolidin-1-yl)-2-oxoethyl)-2′,4′-dioxo-2,3-dihydrospiro[indene-1,5′-oxazolidine]-5-yl)-2-methoxypropionamide]	500 to 2000 nM
CNC(=O)Nc1ccc2c(c1)CC[C@@]21OC(=O)N(CC(=O)N2C[C@@H]3C[C@@H]2CO3)C1=O [Example 103]	> 2000 nM
CNC(=O)Nc1ccc2c(c1)CCC21OC(=O)N(CC(=O)N2CCCC2c2ncc[nH]2)C1=O (centres unmarked) [Example 330, 1-(3′-(2-(2-(1H-imidazol-2-yl)pyrrolidin-1-yl)-2-oxoethyl)-2′,4′-dioxo-2,3-dihydrospiro[indene-1,5′-oxazolidine]-5-yl)-3-methylurea]	> 2000 nM
CNC(=O)Nc1ccc2c(c1)CC[C@@]21OC(=O)N(CC(=O)N2C(c3ccc(F)cc3)CC[C@@H]2C)C1=O (stereo partly drawn) [Example 15, 1-((R)-3′-(2-((5S)-2-(4-fluorophenyl)-5-methylpyrrolidin-1-yl)-2-oxoethyl)-2′,4′-dioxo2,3-dihydrospiro[indene-1,5′-oxazolidine]-5-yl)-3-methylurea]	≤ 500 nM
CNC(=O)Nc1ccc2c(c1)CC[C@@]21OC(=O)N(CC(=O)N2CCC[C@H]2c2ccc(F)cc2C)C1=O [Example 8, 1-((R)-3′-(2-((S)-2-(4-fluoro-2-methylphenyl)pyrrolidin-1-yl)-2-oxoethyl)-2′,4′-dioxo-2,3-dihydrospiro[indene-1,5′-oxazolidine]-5-yl)-3-methylurea]	500 to 2000 nM
CNC(=O)Nc1ccc2c(c1)CC[C@@]21OC(=O)N(CC(=O)N2C(C)CCC2c2ccc(F)cc2C(F)(F)F)C1=O (stereo partly drawn) [Example 356, 1-((1R)-3′-(2-(2-(4-fluoro-2-(trifluoromethyl)phenyl)-5-methylpyrrolidin-1-yl)-2-oxoethyl)-2′,4′-dioxo-2,3-dihydrospiro[indene-1,5′-oxazolidine]-5-yl)-3-methylurea]	> 2000 nM
CNC(=O)Nc1ccc2c(c1)CC[C@@]21OC(=O)N(CC(=O)N2CCCC2c2ccccc2)C1=O (stereo partly drawn) [Example 303, 1-((1R)-2′,4′-dioxo-3′-(2-oxo-2-(2-phenylpyrrolidin-1-yl)ethyl)-2,3-dihydrospiro[indene-1,5′-oxazolidine]-5-yl)-3-methylurea]	500 to 2000 nM
CNC(=O)Nc1ccc2c(c1)CC[C@@]21OC(=O)N(CC(=O)N2C(c3ccc(F)c(F)c3)CCC2(C)C)C1=O (stereo partly drawn) [Example 366, 1-((1R)-3′-(2-(5-(3,4-difluorophenyl)-2,2-dimethylpyrrolidin-1-yl)-2-oxoethyl)-2′,4′-dioxo-2,3-dihydrospiro[indene-1,5′-oxazolidine]-5-yl)-3-methylurea]	500 to 2000 nM
CNC(=O)Nc1ccc2c(c1)CC[C@@]21OC(=O)N(CC(=O)N2CCC2c2ccccc2)C1=O (some centres unmarked) [Example 106]	> 2000 nM
CNC(=O)Nc1ccc2c(c1F)CC[C@]21OC(=O)N(CC(=O)N2[C@@H](C)CC[C@H]2c2ccc(F)c(F)c2)C1=O [Example 381, 1-((S)-3′-(2-((2S,5S)-2-(3,4-difluorophenyl)-5-methylpyrrolidin-1-yl)-2-oxoethyl)-4-fluoro-2′,4′-dioxo-2,3-dihydrospiro[indene-1,5′-oxazolidine]-5-yl)-3-methylurea]	> 2000 nM

Same assay, conditions: Homo sapiens, CWR22Rv1, 144 h, 6 days culture, read-out: IC50 against CWR22RV1 cells (text)

SMILES	IC50
CNC(=O)Nc1ccc2c(c1)CC[C@@]21OC(=O)N(CC(=O)N2C(c3ccc(F)cc3)CC[C@@H]2C)C1=O (stereo partly drawn) [Example 15, 1-((R)-3′-(2-((5S)-2-(4-fluorophenyl)-5-methylpyrrolidin-1-yl)-2-oxoethyl)-2′,4′-dioxo2,3-dihydrospiro[indene-1,5′-oxazolidine]-5-yl)-3-methylurea]	≤ 500 nM
